{"source": "patent US9890195B2", "about": "“MK2 inhibitor compositions and methods to enhance neurite outgrowth, neuroprotection, and nerve regeneration” (Purdue Research Foundation, priority 2009, dated 2018)", "tested_on": "mixed cortical cultures comprising neurons, astrocytes, and microglia", "assay": "Immunocytochemistry/cell imaging of mixed cortical cultures treated with MK2i and TNF-α", "format": "cell-based, Sprague-Dawley rat", "conditions": "for morphological effects on neurons, astrocytes, microglia (FIG. 3): no TNF-α", "description": "The effect of MK2i on neuronal cell death and microglical activation was investigated by treating 1-week old mixed cortical cultures comprising neurons, astrocytes, and microglia with the MK2i peptide […] [SEQ ID NO: 33]. Primary Cortical Cell Culture\nEmbryonic rat cortical tissue was obtained immediately following removal of embryos from the rat's abdomen. E17 Sprague-Dawley rat cortical tissue was placed in a 50 ml conical tube containing 5 ml of Solution 1 (NaCl 7.24 g/L; KCl 0.4 g/L; NaH2PO4 0.14 g/L; Glucose 2.61 g/L; Hepes 5.96 g/L; MgSO4 0.295 g/L; Bovine Serum Albumin 3 g/L). Under sterile conditions, 18 μl of trypsin solution (7.5 mg/ml in 0.9% saline) was added and tissue was passed through a 5-ml pipet several times to disassociate tissue. After the conical tube was placed in a 37° C. water bath for 20 minutes, 100 μl of trypsin inhibitor/DNAse solution (2.5 mg/ml trypsin inhibitor, 400 μg/ml DNase in 0.9% saline) was added to the tube and tissue was pipetted several times with a 5-ml pipet. Tissue was centrifuged at 1,000 rpm for 5 minutes at room temperature and supernatant was poured off. Cells were re-suspended in 16 ml of Hibernate E (BrainBits, Springfield, Ill.) and 100 μl of trypsin inhibitor/DNAse solution and pipetted up and down several times. Cells were filtered through a cell strainer and centrifuged at 1,400 rpm for 5 minutes at room temperature. Supernatant was poured off and cells were re-suspended in media. Primary cells were then plated in poly-D-lysine coated 96-well plates at a seeding density of 625,000 cells/cm^2 and incubated for 7-9 days at 37° C. After 7-9 days, cortical cells were treated with 5 ng/ml or 10 ng/ml of TNF-α to activate microglia. Cells then were treated with 0, 0.5, 1, or 3 mM MK2i peptide […] [SEQ ID NO: 33] for 4 hours, 8 hours, and 24 hours. After treatment, media was removed and stored at −20° C.\nIn preparation for staining mixed cortical cells, cell media was replaced with phosphate-buffered 4% formaldehyde solution for 5 minutes, followed by three washes using HBHS solution (HEPES-buffered Hank's saline containing 10 mg/L sodium azide, pH 7.4). Blocking solution, consisting of 10% normal goat serum in HBHS, then was applied for 30 minutes, followed by three washes with HBHS. Microglia, astrocytes, and neurons were labeled using antibodies against ionized calcium binding adaptor molecule 1 (Iba1, Wako), glial fibrillary acidic protein (GFAP, Millipore), and β-3-tubulin (β3tub, Covance), respectively. Antibodies were applied for 2 hours, at a dilution of 1:400 in HBHS. After two 10 minute washes and one 30 minute wash, secondary antibodies were applied. […]", "note": "Where no end group is shown, it is not given here.", "data": [{"substance": "YARAAARQARAKALARQLGVAA-NH2 [MK2i]", "values": [{"measurement": "suppression of TNF-α-induced neuronal cell damage (FIG. 4)", "setting": "5 ng/ml and 10 ng/ml TNF-α, 3 mM MK2i, which also resulted in neuronal cell damage", "result": "not maintained"}, {"measurement": "morphological effects on neurons, astrocytes, microglia (FIG. 3)", "setting": "0.5 mM and 1.0 mM MK2i (below 3 mM)", "result": "Minimal morphological effects"}, {"measurement": "astrocyte damage (FIG. 6)", "setting": "3 mM MK2i", "result": "damage to astrocytes"}, {"measurement": "morphological effects on neurons, astrocytes, microglia (FIG. 3)", "setting": "3 mM MK2i", "result": "increased neuronal and astrocytic cell damage, as well as microglial proliferation"}]}]}
